Assays:
[1] = test system: SH-SY5Y cells; assay: H2O2-induced oxidative stress model in SH-SY5Y cells; format: cell-based, human; details: H2O2 1 mM 15 min
Method: The SH-SY5Y cells were seeded in 96-well plates at a density of 3.5 × 10^4/well in 100 μL of RPMI supplemented with FBS for 24 h. Then, the cell medium was aspirated, and the cells were treated with different concentrations of the compounds—1, 10, and 50 µM for 90 min. Afterwards, the SH-SY5Y cells were washed with PBS and were exposed to hydrogen peroxide (H2O2) (1 mM in PBS for 15 min) to induce oxidative stress. All well contents were replaced by fresh culture medium and incubated for 24 h. MTT assay was used to evaluate the amount of attached viable cells. Negative controls (cells without H2O2 treatment) were considered as 100% protection and H2O2-treated cells as 0% protection.
To evaluate the possible neuroprotective effects of the compounds, the SH-SY5Y cells were pre-treated with different concentrations (1, 10, 50 µM) for 90 min and then exposed to H2O2 (1 mM) for 15 min. The cell viability of all compounds was measured to verify their protective effect against the toxicity of hydrogen peroxide.

[2] = test system: bEnd3 cells; assay: MTT cell viability assay (cytotoxicity), bEnd3; format: cell-based, mouse; details: 24 h, 1–500 µM
Summary of the method: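 bEnd3 mouse brain endothelial cells (0.7 × 10^4/well, 24 h adherence) were exposed to compounds at 1–500 μM for 24 h, with 0.5% DMSO as solvent control. Viability was read by MTT reduction (0.5 mg/mL, 3 h, 37 °C) as absorbance at 570 nm.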

[3] = test system: SH-SY5Y cells; assay: MTT cell viability assay (cytotoxicity), SH-SY5Y
Summary of the method: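 SH-SY5Y cells seeded at 2 × 10^4 cells/well, adhered 24 h, then exposed to compounds (1–500 μM) for 24 h at 37 °C, 5% CO2; DMSO ≤0.5% as solvent control. MTT (0.5 mg/mL) added for 3 h, formazan dissolved, absorbance read at 570 nm; ≥6 wells per concentration.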

Molecule	protective effect: increased cell viability of SH-SY5Y vs. H2O2 group ([1]; 1 µM pre-treatment 90 min)	protective effect: increased cell viability of SH-SY5Y vs. H2O2 group ([1]; 10 µM pre-treatment 90 min)	protective effect: increased cell viability of SH-SY5Y vs. H2O2 group ([1]; 50 µM pre-treatment 90 min)	IC50 [2]	IC50 [3]
COc1ccc2[nH]cc(CCNC(C)=O)c2c1 [Melatonin]	19%	42%	64%	–	–
N′-(4-Hydroxy-2-methoxybenzylidene)-3-(1H-indol-3-yl)propanehydrazide [Compound 3e]	–	–	–	85.5 µM	> 500 µM
